Measurements published in the supplement of paper PMC10307832.

Key:
Assay in all cases: relative viability (nuclei count vs DMSO), 5 days (fraction); higher = more cells survive
Imatinib = compound: Cc1ccc(NC(=O)c2ccc(CN3CCN(C)CC3)cc2)cc1Nc1nccc(-c2cccnc2)n1 [Imatinib]
Outline: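 Five library-drug doses, separated by factors of √10, were pinned into 1536-well plates holding lung cancer cell lines after an overnight stay at 37 °C. Cells were fixed, permeabilised and Hoechst-stained in one step after 5 days without medium change, then imaged at 4×. Viability compares treated-well with vehicle-well nuclei, counted in MetaXpress, as a median across plates. Passing plates had control CV below 25% and at least one doubling.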

Imatinib + Crizotinib = compound: Cc1ccc(NC(=O)c2ccc(CN3CCN(C)CC3)cc2)cc1Nc1nccc(-c2cccnc2)n1 [Imatinib] + C[C@@H](Oc1cc(-c2cnn(C3CCNCC3)c2)cnc1N)c1c(Cl)ccc(F)c1Cl [Crizotinib] (partner 1 µM)
Outline: (§1)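 For relative viability, nuclei counts in treated wells were divided by those in vehicle wells. Lung cancer cell lines had been pin-tool dosed in 1536-well plates the day after seeding and cultured for 5 days, then fixed and stained in one step (final 0.05% Triton X-100, 1% formaldehyde, 1 ug/ml Hoechst) and imaged at 4×. Doses were one drug alone or a fixed anchor-drug dose plus five library-drug doses (not always all listed) in √10 steps, and values are duplicate-plate medians.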

Imatinib + Decitabine = compound: Cc1ccc(NC(=O)c2ccc(CN3CCN(C)CC3)cc2)cc1Nc1nccc(-c2cccnc2)n1 [Imatinib] + Nc1ncn([C@H]2C[C@H](O)[C@@H](CO)O2)c(=O)n1 [Decitabine] (partner 2 µM)
Outline: as §1

Imatinib + Olaparib = compound: Cc1ccc(NC(=O)c2ccc(CN3CCN(C)CC3)cc2)cc1Nc1nccc(-c2cccnc2)n1 [Imatinib] + O=C(c1cc(Cc2n[nH]c(=O)c3ccccc23)ccc1F)N1CCN(C(=O)C2CC2)CC1 [Olaparib] (partner 8 µM)
Outline: as §1

For NCI-H2170, the relative viability (Imatinib; 0.02 µM) was 0.987, the relative viability (Imatinib; 0.06325 µM) was 0.955 and the relative viability (Imatinib; 0.2 µM) was 1.05. The relative viability (Imatinib; 0.6325 µM) was 0.961, the relative viability (Imatinib; 2 µM) was 1.01 and the relative viability (Imatinib + Crizotinib; first compound 0.02 µM) was 1.5. The relative viability (Imatinib + Crizotinib; first compound 0.06325 µM) was 1.49, the relative viability (Imatinib + Crizotinib; first compound 0.2 µM) was 1.52 and the relative viability (Imatinib + Crizotinib; first compound 0.6325 µM) was 1.3. For the same cell line, the relative viability (Imatinib + Crizotinib; first compound 2 µM) was 1.22, the relative viability (Imatinib + Decitabine; first compound 0.02 µM) was 0.463 and the relative viability (Imatinib + Decitabine; first compound 0.06325 µM) was 0.492. It also gave a relative viability (Imatinib + Decitabine; first compound 0.2 µM) of 0.486, a relative viability (Imatinib + Decitabine; first compound 0.6325 µM) of 0.454 and a relative viability (Imatinib + Decitabine; first compound 2 µM) of 0.458. For the same cell line, the relative viability (Imatinib + Olaparib; first compound 0.02 µM) was 0.635, the relative viability (Imatinib + Olaparib; first compound 0.06325 µM) was 0.585 and the relative viability (Imatinib + Olaparib; first compound 0.2 µM) was 0.663. For the same cell line, the relative viability (Imatinib + Olaparib; first compound 0.6325 µM) was 0.69 and the relative viability (Imatinib + Olaparib; first compound 2 µM) was 0.578.
NCI-H2347 showed a relative viability (Imatinib; 0.02 µM) of 1.09, a relative viability (Imatinib; 0.06325 µM) of 0.825 and a relative viability (Imatinib; 0.2 µM) of 1.13. It also gave a relative viability (Imatinib; 0.6325 µM) of 1.07, a relative viability (Imatinib; 2 µM) of 0.977 and a relative viability (Imatinib + Crizotinib; first compound 0.02 µM) of 0.675. For the same cell line, the relative viability (Imatinib + Crizotinib; first compound 0.06325 µM) was 0.674, the relative viability (Imatinib + Crizotinib; first compound 0.2 µM) was 0.729 and the relative viability (Imatinib + Crizotinib; first compound 0.6325 µM) was 0.647. The relative viability (Imatinib + Crizotinib; first compound 2 µM) was 0.797, the relative viability (Imatinib + Decitabine; first compound 0.02 µM) was 0.58 and the relative viability (Imatinib + Decitabine; first compound 0.2 µM) was 0.653. The relative viability (Imatinib + Decitabine; first compound 0.6325 µM) was 0.615, the relative viability (Imatinib + Decitabine; first compound 2 µM) was 0.632 and the relative viability (Imatinib + Olaparib; first compound 0.02 µM) was 0.551. For the same cell line, the relative viability (Imatinib + Olaparib; first compound 0.2 µM) was 0.614, the relative viability (Imatinib + Olaparib; first compound 0.6325 µM) was 0.587 and the relative viability (Imatinib + Olaparib; first compound 2 µM) was 0.479.
NCI-H2405 gave a relative viability (Imatinib; 0.06325 µM) of 0.721, a relative viability (Imatinib; 0.2 µM) of 1.02 and a relative viability (Imatinib; 0.6325 µM) of 0.927. The relative viability (Imatinib; 2 µM) was 1, the relative viability (Imatinib + Crizotinib; first compound 0.02 µM) was 0.917 and the relative viability (Imatinib + Crizotinib; first compound 0.06325 µM) was 0.879. For the same cell line, the relative viability (Imatinib + Crizotinib; first compound 0.2 µM) was 0.827, the relative viability (Imatinib + Crizotinib; first compound 0.6325 µM) was 0.772 and the relative viability (Imatinib + Crizotinib; first compound 2 µM) was 0.843. The relative viability (Imatinib + Decitabine; first compound 0.02 µM) was 0.707, the relative viability (Imatinib + Decitabine; first compound 0.06325 µM) was 0.636 and the relative viability (Imatinib + Decitabine; first compound 0.2 µM) was 0.848. The relative viability (Imatinib + Decitabine; first compound 0.6325 µM) was 0.724, the relative viability (Imatinib + Decitabine; first compound 2 µM) was 0.722 and the relative viability (Imatinib + Olaparib; first compound 0.02 µM) was 0.933. For the same cell line, the relative viability (Imatinib + Olaparib; first compound 0.06325 µM) was 0.947, the relative viability (Imatinib + Olaparib; first compound 0.2 µM) was 0.919 and the relative viability (Imatinib + Olaparib; first compound 0.6325 µM) was 0.875. It also gave a relative viability (Imatinib + Olaparib; first compound 2 µM) of 0.922.
NCI-H3122 was tested, and the relative viability (Imatinib; 0.02 µM) was 1.02, the relative viability (Imatinib; 0.2 µM) was 1.1 and the relative viability (Imatinib; 0.6325 µM) was 1.03. For the same cell line, the relative viability (Imatinib; 2 µM) was 1.08, the relative viability (Imatinib + Crizotinib; first compound 0.02 µM) was 0.253 and the relative viability (Imatinib + Crizotinib; first compound 0.06325 µM) was 0.292. For the same cell line, the relative viability (Imatinib + Crizotinib; first compound 0.2 µM) was 0.324, the relative viability (Imatinib + Crizotinib; first compound 0.6325 µM) was 0.313 and the relative viability (Imatinib + Crizotinib; first compound 2 µM) was 0.255. For the same cell line, the relative viability (Imatinib + Decitabine; first compound 0.02 µM) was 0.44, the relative viability (Imatinib + Decitabine; first compound 0.06325 µM) was 0.467 and the relative viability (Imatinib + Decitabine; first compound 0.2 µM) was 0.441. The relative viability (Imatinib + Decitabine; first compound 0.6325 µM) was 0.439, the relative viability (Imatinib + Decitabine; first compound 2 µM) was 0.375 and the relative viability (Imatinib + Olaparib; first compound 0.02 µM) was 0.71. The relative viability (Imatinib + Olaparib; first compound 0.06325 µM) was 0.618, the relative viability (Imatinib + Olaparib; first compound 0.2 µM) was 0.701 and the relative viability (Imatinib + Olaparib; first compound 0.6325 µM) was 0.693. The relative viability (Imatinib + Olaparib; first compound 2 µM) was 0.66.
For PC-3 [JPC-3], the relative viability (Imatinib; 0.02 µM) was 1.07, the relative viability (Imatinib; 0.2 µM) was 1.09 and the relative viability (Imatinib; 0.6325 µM) was 1.11. It also gave a relative viability (Imatinib; 2 µM) of 0.972, a relative viability (Imatinib + Crizotinib; first compound 0.02 µM) of 0.979 and a relative viability (Imatinib + Crizotinib; first compound 0.2 µM) of 1.02. The relative viability (Imatinib + Crizotinib; first compound 0.6325 µM) was 0.921, the relative viability (Imatinib + Crizotinib; first compound 2 µM) was 0.96 and the relative viability (Imatinib + Decitabine; first compound 0.02 µM) was 0.861. The relative viability (Imatinib + Decitabine; first compound 0.6325 µM) was 0.776, the relative viability (Imatinib + Decitabine; first compound 2 µM) was 0.84 and the relative viability (Imatinib + Olaparib; first compound 0.02 µM) was 1.22. It also gave a relative viability (Imatinib + Olaparib; first compound 0.6325 µM) of 1.18 and a relative viability (Imatinib + Olaparib; first compound 2 µM) of 1.08.
In the case of PC-14, the relative viability (Imatinib; 0.02 µM) is reported as 1.08, the relative viability (Imatinib; 0.06325 µM) is reported as 0.726 and the relative viability (Imatinib; 0.2 µM) is reported as 1.17. The relative viability (Imatinib; 0.6325 µM) was 1, the relative viability (Imatinib; 2 µM) was 0.953 and the relative viability (Imatinib + Crizotinib; first compound 0.02 µM) was 1.15. It also gave a relative viability (Imatinib + Crizotinib; first compound 0.06325 µM) of 0.936, a relative viability (Imatinib + Crizotinib; first compound 0.2 µM) of 0.935 and a relative viability (Imatinib + Crizotinib; first compound 0.6325 µM) of 0.958. The relative viability (Imatinib + Crizotinib; first compound 2 µM) was 0.848, the relative viability (Imatinib + Decitabine; first compound 0.02 µM) was 0.253 and the relative viability (Imatinib + Decitabine; first compound 0.06325 µM) was 0.244. For the same cell line, the relative viability (Imatinib + Decitabine; first compound 0.2 µM) was 0.249, the relative viability (Imatinib + Decitabine; first compound 0.6325 µM) was 0.199 and the relative viability (Imatinib + Decitabine; first compound 2 µM) was 0.208. The relative viability (Imatinib + Olaparib; first compound 0.02 µM) was 0.274, the relative viability (Imatinib + Olaparib; first compound 0.06325 µM) was 0.229 and the relative viability (Imatinib + Olaparib; first compound 0.2 µM) was 0.357. The relative viability (Imatinib + Olaparib; first compound 0.6325 µM) was 0.221 and the relative viability (Imatinib + Olaparib; first compound 2 µM) was 0.244.
RERF-LC-KJ was tested, and the relative viability (Imatinib; 0.02 µM) was 1.1, the relative viability (Imatinib; 0.06325 µM) was 0.884 and the relative viability (Imatinib; 0.2 µM) was 1.06. The relative viability (Imatinib; 0.6325 µM) was 0.985, the relative viability (Imatinib; 2 µM) was 0.953 and the relative viability (Imatinib + Crizotinib; first compound 0.02 µM) was 0.867. The relative viability (Imatinib + Crizotinib; first compound 0.06325 µM) was 0.885, the relative viability (Imatinib + Crizotinib; first compound 0.2 µM) was 0.51 and the relative viability (Imatinib + Crizotinib; first compound 0.6325 µM) was 0.855. For the same cell line, the relative viability (Imatinib + Crizotinib; first compound 2 µM) was 0.826, the relative viability (Imatinib + Decitabine; first compound 0.02 µM) was 0.755 and the relative viability (Imatinib + Decitabine; first compound 0.06325 µM) was 0.558. The relative viability (Imatinib + Decitabine; first compound 0.2 µM) was 0.655, the relative viability (Imatinib + Decitabine; first compound 2 µM) was 0.754 and the relative viability (Imatinib + Olaparib; first compound 0.02 µM) was 1.03. The relative viability (Imatinib + Olaparib; first compound 0.06325 µM) was 0.933, the relative viability (Imatinib + Olaparib; first compound 0.2 µM) was 1.1 and the relative viability (Imatinib + Olaparib; first compound 2 µM) was 0.898.
Cell Line SK-LU-1 has a relative viability (Imatinib; 0.02 µM) of 1.08, a relative viability (Imatinib; 0.2 µM) of 1.15 and a relative viability (Imatinib; 2 µM) of 1.11. The relative viability (Imatinib + Crizotinib; first compound 0.02 µM) was 1.04, the relative viability (Imatinib + Crizotinib; first compound 0.06325 µM) was 0.927 and the relative viability (Imatinib + Crizotinib; first compound 0.2 µM) was 1.11. The relative viability (Imatinib + Crizotinib; first compound 0.6325 µM) was 0.926, the relative viability (Imatinib + Crizotinib; first compound 2 µM) was 1.04 and the relative viability (Imatinib + Decitabine; first compound 0.02 µM) was 0.686. It also gave a relative viability (Imatinib + Decitabine; first compound 0.06325 µM) of 0.543, a relative viability (Imatinib + Decitabine; first compound 0.2 µM) of 0.588 and a relative viability (Imatinib + Decitabine; first compound 0.6325 µM) of 0.598. For the same cell line, the relative viability (Imatinib + Decitabine; first compound 2 µM) was 0.645, the relative viability (Imatinib + Olaparib; first compound 0.02 µM) was 0.379 and the relative viability (Imatinib + Olaparib; first compound 0.06325 µM) was 0.457. The relative viability (Imatinib + Olaparib; first compound 0.2 µM) was 0.462.
